Experimental data as given in article PMC8748916, “Microbial enzymes induce colitis by reactivating triclosan in the mouse gastrointestinal tract” (Nature Communications, 2022).
Values joined by “and” are separate entries in the source; they are usually repeats but may differ in a detail not shown here. Equal entries are not always repeated. Where two headings read alike, the source gives them in different places.

Legend:
MC38 cells = assay: Cell proliferation assay (MTT); assay type: cell-based, mouse
Procedure: Mouse (MC38) or human (Caco2 and HCT-116) intestinal cells were grown in DMEM medium fortified with 10% FBS (EMD Millipore Corporation). The cells were seeded in 96-well plates, then treated with GUSi or vehicle (0.2% v/v DMSO) for 24 h. Cell viability was determined using an MTT assay.
Fig. S14. GUSi treatment has little effect on the proliferation of mouse or human intestinal cells in vitro.
Mouse (MC38) or human (Caco2 and HCT-116) intestinal cells were treated with GUSi or vehicle (0.2% v/v
DMSO) for 24 h, then cell viability was analyzed using a MTT assay. The data are mean ± SEM, n = 5-6 per

Loop 1 GUS enzymes = assay: In vitro IC50 assay, purified Loop 1 GUS enzymes (group statement); assay type: biochemical, gut microbial; conditions: Fp2-L1 GUS and several other Loop 1 GUS enzymes; conversion of TCS-G to TCS
Procedure: Reaction mixtures containing 10 µL GUS (10 nM final), 10 µL TCS-G (200 µM final), 5 µL inhibitor (various concentrations), and 25 µL buffer (50 mM HEPES, 50 mM NaCl, various pH) or (50 mM sodium acetate, 50 mM NaCl, various pH) were incubated for 10 min and quenched with 50 µL 25% trichloroacetic acid. Samples were centrifuged 10 min at 16,000 × g, and the supernatant was analyzed using the method described for the catalytic efficiency assay. Inhibition was calculated by the equation below:1 %inhibition=100×(1−(AUCinh−AUCmax)/(AUCmin−AUCmax)) where AUCmin is the signal of the uninhibited reaction, AUCmax is the signal of the 100% inhibited reaction, and AUCinh is the signal of the reaction at a given concentration of inhibitor. Percent inhibition values were plotted against the log of inhibitor concentration, and GraphPad Prism 8.0 was used to determine IC50 values.

[1] = tested on: gut microbial β-glucuronidase (GUS) enzymes; assay: In vitro UDH (coupled) assay of TCS-G cleavage by a panel of 32 purified GUS enzymes; assay type: biochemical

C1CCc2c(c(N3CCOCC3)nc3sc4c(N5CCNCC5)nnnc4c23)C1 [GUSi, UNC10201652]
effect on cell growth (MTT) (MC38 cells; 24-h treatment, concentration up to 10 µM): little effect | Cell proliferation (Fig. S14) (MC38 cells; MC38, concentration 1, replicates): 97.1748 and 94.9589 and 98.929 and 107.192 and 94.0356 and 103.315 | Cell proliferation (Fig. S14) (MC38 cells; MC38, concentration 2, replicates): 103.453 and 99.2983 and 100.314 and 103.361 and 103.084 and 108.023 | Cell proliferation (Fig. S14) (MC38 cells; MC38, concentration 5, replicates): 85.9108 and 74.139 and 84.9875 and 91.9121 and 86.7418 and 84.0181 | Cell proliferation (Fig. S14) (MC38 cells; MC38, concentration 10, replicates): 68.784 and 87.3419 and 84.2489 and 91.7736 and 82.9102 | IC50 (Loop 1 GUS enzymes): 640 to 4900 nM

O=C(O)C1OC(Oc2cc(Cl)ccc2Oc2ccc(Cl)cc2Cl)C(O)C(O)C1O (centres unmarked) [TCS-G, triclosan-glucuronide]
Rate [1]: 0.1092 µM/s and 0.1031 µM/s and 0.1177 µM/s | Rate ([1]; GUS: Akkermansia muciniphila, Fig. 3a, replicates 1-3): 0.0108 µM/s and 0.0181 µM/s and 0.0194 µM/s | Rate ([1]; GUS: Akkermansia sp. CAG:344, Fig. 3a, replicates 1-3): 0.0157 µM/s and 0.0151 µM/s and 0.0237 µM/s | Rate ([1]; GUS: Bacteroides MSP (BMSP), Fig. 3a, replicates 1-3): 0.0000 µM/s and 0.0073 µM/s and 0.0072 µM/s | Rate ([1]; GUS: Bacteroides coprocola CAG: 126, Fig. 3a, replicates 1-3): 0.0000 uM/s (2×) and 0.0056 uM/s | Rate ([1]; GUS: Bacteroides dorei, Fig. 3a, replicates 1-3): 0.0000 µM/s | Rate ([1]; GUS: Bacteroides fragillis (1, mini loop), Fig. 3a, replicates 1-3): 0.0000 uM/s (2×) and 0.0043 uM/s | Rate ([1]; GUS: Bacteroides fragillis (2, No Loop), Fig. 3a, replicates 1-3): 0.0228 µM/s and 0.0242 µM/s and 0.0201 µM/s | Rate ([1]; GUS: Bacteroides ovatus 1 (Double mini loop), Fig. 3a, replicates 1-3): 0.0000 µM/s and 0.0060 µM/s and 0.0033 µM/s | Rate ([1]; GUS: Bacteroides ovatus 2 (loop 2), Fig. 3a, replicates 1-3): 0.0287 µM/s and 0.0311 µM/s and 0.0066 µM/s | Rate ([1]; GUS: Bacteroides uniformis 1, Fig. 3a, replicates 1-3): 0.0000 µM/s | Rate ([1]; GUS: Bacteroides uniformis 2, Fig. 3a, replicates 1-3): 0.0217 µM/s and 0.0464 µM/s and 0.0098 µM/s | Rate ([1]; GUS: Bacteroides uniformis 3, Fig. 3a, replicates 1-3): 0.0000 µM/s | Rate ([1]; GUS: Clostridiales sp., Fig. 3a, replicates 1-3): 0.2137 µM/s and 0.2298 µM/s and 0.2970 µM/s | Rate ([1]; GUS: Escherichia coli, Fig. 3a, replicates 1-3): 0.0775 µM/s and 0.0865 µM/s and 0.0858 µM/s | Rate ([1]; GUS: Eubacterium eligens, Fig. 3a, replicates 1-3): 0.1302 µM/s and 0.1403 µM/s and 0.1746 µM/s | Rate ([1]; GUS: Eubacterium sp. CAG: 76, Fig. 3a, replicates 1-3): 0.2371 µM/s and 0.2156 µM/s and 0.2776 µM/s | Rate ([1]; GUS: Faecalibacterium prausnitzii 2-L1, Fig. 3a, replicates 1-3): 0.4231 µM/s and 0.3684 µM/s and 0.3821 µM/s | Rate ([1]; GUS: Faecalibacterium prausnitzii L2-6, Fig. 3a, replicates 1-3): 0.2237 µM/s and 0.2529 µM/s and 0.1639 µM/s | Rate ([1]; GUS: Faecalibacterium prausnitzii, Fig. 3a, replicates 1-3): 0.1749 µM/s and 0.1228 µM/s and 0.2576 µM/s | Rate ([1]; GUS: Fusicatenibacter saccharivorans, Fig. 3a, replicates 1-3): 0.0089 µM/s and 0.0000 µM/s and 0.0052 µM/s | Rate ([1]; GUS: H11G11, Fig. 3a, replicates 1-3): 0.0684 µM/s and 0.0777 µM/s and 0.0864 µM/s | Rate ([1]; GUS: Lactobacillus rhamnosus, Fig. 3a, replicates 1-3): 0.0323 µM/s and 0.1224 µM/s and 0.1254 µM/s | Rate ([1]; GUS: Parabacteroides merdea, Fig. 3a, replicates 1-3): 0.0043 µM/s and 0.0011 µM/s and 0.0000 µM/s | Rate ([1]; GUS: Roseburia hominis 2, Fig. 3a, replicates 1-3): 0.0519 µM/s and 0.0527 µM/s and 0.0448 µM/s | Rate ([1]; GUS: Roseburia hominis 3, Fig. 3a, replicates 1-3): 0.4975 µM/s and 0.4668 µM/s and 0.4395 µM/s | Rate ([1]; GUS: Roseburia hominis, Fig. 3a, replicates 1-3): 0.0330 µM/s and 0.0266 µM/s and 0.0438 µM/s | Rate ([1]; GUS: Roseburia intestinalis, Fig. 3a, replicates 1-3): 0.0269 µM/s and 0.0251 µM/s and 0.0293 µM/s | Rate ([1]; GUS: Roseburia inulinvorans, Fig. 3a, replicates 1-3): 0.1707 µM/s and 0.1889 µM/s and 0.1974 µM/s | Rate ([1]; GUS: Ruminoccus gnavus 1, Fig. 3a, replicates 1-3): 0.0272 µM/s and 0.0287 µM/s and 0.0319 µM/s | Rate ([1]; GUS: Ruminoccus gnavus 3, Fig. 3a, replicates 1-3): 0.1417 µM/s and 0.1517 µM/s and 0.1712 µM/s | Rate ([1]; GUS: Streptococcus agalactiae, Fig. 3a, replicates 1-3): 0.0757 µM/s and 0.0745 µM/s and 0.0702 µM/s
